{"source": "paper PMC7006908", "about": "(PLoS ONE, 2020)", "key": {"[1]": {"parameters": "method as in PMID 29862467", "details": "exposure-efficacy analysis in patients; cited from earlier work"}, "[2]": {"test": "Long term stability in human plasma at -80°C", "type": "in vitro ADME", "details": "for Acc. %, stored at -80ºC over 2 months (plasma): % of nominal"}, "[3]": {"test": "LC-MS/MS quantification of Cmin in plasma samples from breast cancer patients (clinical study CRO-2018-83)", "type": "in vivo, human", "details": "for concentration at 15 h / concentration at 30 h: human, plasma, oral; for concentration at 15 h: patient 7, sample 9, PALBO 125 mg/day; for concentration at 30 h: patient 8, sample 10, RIBO 600 mg/day + LETRO 2.5 mg/day", "protocol": "Preparation of calibration curve and QCs samples was conducted through the following steps: 1) 5 μL of working solutions were added to 95 μL of blank human plasma (dilution 1:20) and vortexed for 10 s; 2) a 10 μL-aliquot of this mix was added with 80 μL of cold IS working solution (see “Standard solutions preparation” section), vortexed and then centrifuged for 15 min at 16200 g and 4°C; 3) 70 μL of the supernatant were transferred to a polypropylene tube for the following analysis. […] The preparation of patients’ samples was conducted as following: patient plasma was thawed at room temperature, vortexed for 10 s and centrifuged, for 10 min, at 3000 g and 4°C; 10 μL of plasma was then treated according to steps 2) and 3).\nThe HPLC system was a SIL-20AC XR auto-sampler and LC-20AD UFLC XR pumps (Shimadzu, Tokyo, Japan). The mobile phases (MP) consisted of ultrapure water with 0.1% HCOOH (phase A) and methanol/isopropanol (9:1, v/v) with 0.1% HCOOH (phase B). The chromatographic separation was obtained on the Luna Omega Polar C18 column ([…], 100 Å, 50 x 2.1 mm) coupled with a Security Guard Cartridge (Polar, C18, 4 x 2.0 mm), both provided by Phenomenex (Castel Maggiore (BO), Italy). The mass spectrometry system used for the detection was an API 4000 triple quadrupole (AB SCIEX, Massachusetts, USA) with a TurboIonSpray source operating in positive ion mode. To optimize source and compound dependent parameters, solutions of each analyte at the concentration of 100 ng/mL were used with a flow rate of 20 μL/min. Data were processed with Analyst 1.6.3 and the quantification of the peaks was done with MultiQuant 2.1 (software package AB SCIEX).\nThe exclusion criteria were to be non-collaborative and/or unreliable patients and refusal of informed consent. Patients were asked to periodically (every two months) collect plasma samples for the estimation of PALBO or RIBO and/or LETRO Cmin during their therapy treatment.\nPlasma was obtained immediately by centrifugation of the blood samples at 3000 g for 10 min at 4°C. Then the obtained plasma was split into two independent aliquots and stored at -80°C in two different freezers.\nAt present, each of the 10 patients’ samples collected were quantified in 2 separate runs during 2 different working days, to further assess the reproducibility of the proposed method. In fact, as recently introduced in the last version of the FDA guideline, incurred samples re-analysis (ISR) is necessary to show the reliability of the reported analyte concentrations obtained with a bioanalytical method. ISR is conducted by repeating the analysis of a subset of patients’ samples in separate runs. The two analyses can be considered equivalent if the percentage difference [expressed as: (repeat-original)*100/mean] between the first and the second concentration measured is within ±20% for at least 67% of the samples [23, 24]."}, "[4]": {"details": "cited from earlier work"}, "[5]": {"test": "Stability of deproteinized QCs in autosampler at 4 °C", "type": "physicochemical", "details": "for Acc. %, T = 72 h in autosampler (4°C): % of nominal", "protocol": "(§1) Stability tests were conducted using QCs prepared in triplicate at each concentration (L, M, H): bench-top stability was investigated after 4 h at room temperature; stability of the deproteinized QCs was evaluated in autosampler set at 4 °C re-analysing the samples 24, 48, and 72 h after the first injection; freeze/thaw stability was assessed by analysing three freshly prepared aliquots of each QCs concentration, and then again after one and two freeze/thaw cycles."}, "[6]": {"test": "Long term stability of working solutions in methanol at -20°C", "type": "physicochemical", "details": "for Acc. %, stored at -20ºC over 2 months (methanol): % of nominal"}, "[7]": {"test": "Bench-top stability in human plasma, 4 h at room temperature", "type": "in vitro ADME", "details": "for Acc. %, T = 4h (RT): % of nominal", "protocol": "as §1"}, "[8]": {"details": "QC high: nominal 200.00 PALBO / 8000.00 RIBO / 400.00 LETRO ng/mL"}, "[9]": {"details": "QC low: nominal 0.50 PALBO / 20.00 RIBO / 1.00 LETRO ng/mL"}, "[10]": {"details": "QC medium: nominal 20.00 PALBO / 800.00 RIBO / 40.00 LETRO ng/mL"}, "[11]": {"details": "deproteinized QC high: nominal 200.00 PALBO / 8000.00 RIBO / 400.00 LETRO ng/mL"}, "[12]": {"details": "deproteinized QC low: nominal 0.50 PALBO / 20.00 RIBO / 1.00 LETRO ng/mL"}, "[13]": {"details": "deproteinized QC medium: nominal 20.00 PALBO / 800.00 RIBO / 40.00 LETRO ng/mL"}, "[14]": {"details": "plasma QC high: nominal 200.00 PALBO / 8000.00 RIBO / 400.00 LETRO ng/mL"}, "[15]": {"details": "plasma QC low: nominal 0.50 PALBO / 20.00 RIBO / 1.00 LETRO ng/mL"}, "[16]": {"details": "plasma QC medium: nominal 20.00 PALBO / 800.00 RIBO / 40.00 LETRO ng/mL"}}, "note": "Values joined by “and” are separate entries in the source; they are usually repeats but may differ in a detail not shown here. Identical values can stand only once. Like-named read-outs stand apart in the source and are kept apart here.", "data": [{"smiles": "N#Cc1ccc(C(c2ccc(C#N)cc2)n2cncn2)cc1", "note": "[LETRO, letrozole]", "values": [{"measurement": "LETRO plasma concentration associated with longer time to tumour progression", "setting": "[1]", "result": "≥ 85.6", "unit": "ng/mL"}, {"measurement": "Mean ± SD measured concentration, stored at -80ºC over 2 months (plasma)", "setting": "[2]; [8]", "result": "386.66 ± 6.61", "unit": "ng/mL"}, {"measurement": "Acc. %, stored at -80ºC over 2 months (plasma)", "setting": "[2]; [8]", "result": 96.7, "unit": "%"}, {"measurement": "Mean ± SD measured concentration, stored at -80ºC over 2 months (plasma)", "setting": "[2]; [9]", "result": "0.88 ± 0.01", "unit": "ng/mL"}, {"measurement": "Acc. %, stored at -80ºC over 2 months (plasma)", "setting": "[2]; [9]", "result": 88.3, "unit": "%"}, {"measurement": "Mean ± SD measured concentration, stored at -80ºC over 2 months (plasma)", "setting": "[2]; [10]", "result": "39.58 ± 0.90", "unit": "ng/mL"}, {"measurement": "Acc. %, stored at -80ºC over 2 months (plasma)", "setting": "[2]; [10]", "result": 99.0, "unit": "%"}, {"measurement": "concentration at 15 h", "setting": "[3]; LETRO 2.5 mg/day, last pill intake 15 h before sampling, read-out: I quantif. plasma concentration (Cmin)", "result": 2.8, "unit": "ng/mL"}, {"measurement": "concentration at 15 h", "setting": "[3]; LETRO 2.5 mg/day, reanalysis in second run, read-out: II quantif. plasma concentration (Cmin)", "result": 2.9, "unit": "ng/mL"}, {"measurement": "concentration at 30 h", "setting": "[3]; 30 h from last pills intake, read-out: I quantif. plasma concentration (Cmin)", "result": 46.8, "unit": "ng/mL"}, {"measurement": "concentration at 30 h", "setting": "[3]; reanalysis in second run, read-out: II quantif. plasma concentration (Cmin)", "result": 46.9, "unit": "ng/mL"}, {"measurement": "II quantif. plasma concentration (Cmin)", "setting": "[3]; patient 6, sample 8, PALBO 125 mg/day, LETRO 2.5 mg/day, reanalysis in second run", "result": 67.8, "unit": "ng/mL"}, {"measurement": "LETRO mean plasma concentration (±SD)", "setting": "[4]; ref 11 (Beer et al.)", "result": "107.0 ng/mL and 107.0 ± 62.9 ng/mL"}, {"measurement": "LETRO mean plasma concentration (range)", "setting": "[4]; ref 22 (Desta et al.)", "result": "89.7 (28.4–349.2) ng/mL"}, {"measurement": "Mean ± SD measured concentration, T = 72 h in autosampler (4°C)", "setting": "[5]; [11]", "result": "426.23 ± 4.43", "unit": "ng/mL"}, {"measurement": "Acc. %, T = 72 h in autosampler (4°C)", "setting": "[5]; [11]", "result": 106.6, "unit": "%"}, {"measurement": "Mean ± SD measured concentration, T = 72 h in autosampler (4°C)", "setting": "[5]; [12]", "result": "0.94 ± 0.07", "unit": "ng/mL"}, {"measurement": "Acc. %, T = 72 h in autosampler (4°C)", "setting": "[5]; [12]", "result": 93.9, "unit": "%"}, {"measurement": "Mean ± SD measured concentration, T = 72 h in autosampler (4°C)", "setting": "[5]; [13]", "result": "44.45 ± 0.19", "unit": "ng/mL"}, {"measurement": "Acc. %, T = 72 h in autosampler (4°C)", "setting": "[5]; [13]", "result": 111.1, "unit": "%"}, {"measurement": "Mean ± SD measured concentration, stored at -20ºC over 2 months (methanol)", "setting": "[6]; [8]", "result": "413.47 ± 6.07", "unit": "ng/mL"}, {"measurement": "Acc. %, stored at -20ºC over 2 months (methanol)", "setting": "[6]; [8]", "result": 103.4, "unit": "%"}, {"measurement": "Mean ± SD measured concentration, stored at -20ºC over 2 months (methanol)", "setting": "[6]; [9]", "result": "1.05 ± 0.03", "unit": "ng/mL"}, {"measurement": "Acc. %, stored at -20ºC over 2 months (methanol)", "setting": "[6]; [9]", "result": 105.1, "unit": "%"}, {"measurement": "Mean ± SD measured concentration, stored at -20ºC over 2 months (methanol)", "setting": "[6]; [10]", "result": "44.12 ± 1.25", "unit": "ng/mL"}, {"measurement": "Acc. %, stored at -20ºC over 2 months (methanol)", "setting": "[6]; [10]", "result": 110.3, "unit": "%"}, {"measurement": "Mean ± SD measured concentration, T = 4h (RT)", "setting": "[7]; [14]", "result": "372.54 ± 24.58", "unit": "ng/mL"}, {"measurement": "Acc. %, T = 4h (RT)", "setting": "[7]; [14]", "result": 93.1, "unit": "%"}, {"measurement": "Mean ± SD measured concentration, T = 4h (RT)", "setting": "[7]; [15]", "result": "0.88 ± 0.06", "unit": "ng/mL"}, {"measurement": "Acc. %, T = 4h (RT)", "setting": "[7]; [15]", "result": 88.2, "unit": "%"}, {"measurement": "Mean ± SD measured concentration, T = 4h (RT)", "setting": "[7]; [16]", "result": "37.95 ± 1.78", "unit": "ng/mL"}, {"measurement": "Acc. %, T = 4h (RT)", "setting": "[7]; [16]", "result": 94.9, "unit": "%"}]}]}
